The values that follow come from patent US10093675B2, “6,8-disubstituted-9-(heterocyclyl)purines, compositions containing these derivatives and their use in cosmetic and medicinal applications” (USTAV EXPERIMENTALNI BOTANIKY AV CR, V.V.I., priority 2014, dated 2018).

In data set [1] the test system is cytokinin-dependent tobacco callus Nicotiana tabacum L. cv. Wisconsin 38. Description: Plant cell division: growth of cytokinin-dependent tobacco callus. It counts as cell-based. To be noted: for Activity (%); (s.d.): relative activity at concentration with highest activity, 10^−6 M kinetin set at 100%; for Concentration with highest activity (mol/l): tobacco callus fresh weight increase after four weeks, tested 10^−8 M to 10^−4 M.

The subject of data set [2] is breast carcinoma cell line MCF-7. The data set can be described thus: In vitro cytotoxic activity (Calcein AM), MCF-7. It counts as cell-based, human. The settings on record: 72 hours, read-out: Cell line tested/IC50 (μmol/L) MCF7. From the text:
(§1) Because toxic compounds negatively influence metabolic processes of cells, many standard cytotoxicity assays are based on measurement of metabolisation rate of various artificial substrates. Resulting product is then quantified, for example, by means of spectrometry. The assays can be easily modified for use in 96-well plates. For evaluation of cytotoxicity of the […] of this invention, a microtiter assay based on quantification of metabolisation of Calcein AM was used. The assay is widely used in drug screening programs and in chemosensitivity testing. In live cells, Calcein AM is enzymatically hydrolysed and accumulation of resulting calcein is manifested by green fluorescence.
(§2) The following human cell lines were used for routine screening of the compounds: normal diploid fibroblasts BJ, T-lymphoblastic leukemia cell line CEM, promyelocytic leukemia cell line HL-60, erytroid leukemia cell line K-562, breast carcinoma cell line MCF-7, osteosarcoma cell line HOS and melanoma cell line G-361. The cells were maintained in Nunc/Corning 80 cm^2 plastic tissue culture flasks and cultured in cell culture medium (DMEM with 5 g/l glucose, 2 mM glutamine, 100 U/ml penicillin, 100 mmg/ml streptomycin, 10% fetal calf serum and sodium bicarbonate). The cell suspensions were prepared and diluted according to the particular cell type and the expected target cell density (2.500-30.000 cells per well based on cell growth characteristics) and pipetted (80 μl) into 96-well plates. Inoculates were allowed a pre-incubation period of 24 hours at 37° C. and 5% CO2 for stabilization. Tested compound was added in total volume of 20 μl of water at time zero. Usually, test compound was evaluated at six 3-fold dilutions. In routine testing, the highest concentration tested was 100 μM, but it could have been adjusted because of limited solubility of a compound. All drug concentrations were tested in triplicates.
(§3) Incubations of cells with the test compounds lasted for 72 hours at 37° C., in 5% CO2 atmosphere and 100% humidity. At the end of incubation period Calcein AM in PBS was added into final concentration of 1 μg/ml. After another 1 hour of incubation fluorescence (FD) was measured with the Labsystem FIA Reader Fluoroscan Ascent (UK). Growth inhibition (GI) was estimated using the following equitation: GI=(mean FDdrug exposed wells−mean FDblank)/(mean FDcontrol wells−mean FDblank)×100%. The GI50 value, the drug concentration causing 50% reduction of Calcein AM conversion, was calculated from the obtained dose response curves.

The test system of data set [3] is Human diploid fibroblast BJ. The data set can be described thus: In vitro cytotoxic activity (MTT). It counts as cell-based. The settings on record: 72 hours incubation; concentration causing 20% decrease in mitochondrial dehydrogenase activity. The protocol: MTT (metabolic tetrazolium toxicity) assay is a standard colorimetric assay for evaluation of cytotoxicity. Mitochondrial dehydrogenase activity converts yellow MTT into violet formazan which is measured by means of spectrometry.
Human diploid fibroblast BJ (passage 18-22) were seeded into 96-well plate (5.000 cells per well). After 6 hours cultivation medium (DMEM with 5 g/l glucose, 2 mM glutamine, 100 U/ml penicillin, 100 mmg/ml streptomycin, 10% fetal calf serum and sodium bicarbonate) was replaced with the cultivation medium containing test compounds in concentration range of 0-200 µM. Highest concentration was adjusted if the solubility of the compound was limiting. Every concentration was tested in pentaplicate. MTT was added to the cells after 72 hours incubation (final concentration 0.5 mg/ml) and incubation continued for another 3 hours. MTT was solubilised by DMSO and absorbance at 570 nm was measured. Growth inhibition (GI) was estimated using the following equitation: GI=(mean A drug exposed wells−mean Ablank/mean Acontrol wells−mean Ablank)×100%. The GI20 value, the drug concentration causing 20% decrease in mitochondrial dehydrogenase activity, was calculated from the obtained dose response curves.

Data set [4] relates to excised wheat leaf tips (Triticum aestivum cv. Hereward). Description: Senescence inhibition on winter wheat leaf segments (retention of chlorophyll). It counts as in vivo. To be noted: 10^−4 mol/L; 96 hours in the dark; activity of kinetin set at 100%. The gist of the method:
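First-leaf tips from 7-day-old wheat seedlings stood with their bases in test solution for 96 h in the dark at 25° C. Chlorophyll was then extracted in hot 80% ethanol and read at 665 nm. Activity at each compound's best concentration is relative to 10^−4 M kinetin (100%), as means of five replicates.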

A further data set concerns melanoma cell line G-361. The data set can be described thus: In vitro cytotoxic activity (Calcein AM), G-361. It counts as cell-based, human. The settings on record: 72 hours, read-out: Cell line tested/IC50 (μmol/L) G-361.
From the text: as §1, §2, §3

In data set [5] the test system is erytroid leukemia cell line K-562. Description: In vitro cytotoxic activity (Calcein AM), K-562. It counts as cell-based, human. The settings on record: 72 hours, read-out: Cell line tested/IC50 (μmol/L) K-562.
From the text: as §1, §2, §3

In data set [6] the test system is osteosarcoma cell line HOS. Description: In vitro cytotoxic activity (Calcein AM), HOS. It counts as cell-based, human. The settings on record: 72 hours, read-out: Cell line tested/IC50 (μmol/L) HOS.
From the text: as §1, §2, §3

In data set [7] the test system is T-lymphoblastic leukemia cell line CEM. Description: In vitro cytotoxic activity (Calcein AM), CEM. It counts as cell-based, human. To be noted: 72 hours, read-out: Cell line tested/IC50 (μmol/L) CEM.
From the text: as §1, §2, §3

Data set [8] deals with normal diploid fibroblasts BJ. The data set can be described thus: In vitro cytotoxic activity (Calcein AM), BJ. It counts as cell-based, human. The settings on record: 72 hours, read-out: Cell line tested/IC50 (μmol/L) BJ.
From the text: as §1, §2, §3

The subject of data set [9] is Salmonella typhimurium histidien auxotrophs TA98 and TA100. Description: Ames test. It counts as cell-based. The settings on record: 2.5 to 5000 μg/plate; presence and absence of Aroclor-induced rat liver S9. An outline of the steps: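 Strains TA98 and TA100 exposed to compounds in DMSO at 2.5, 5.0, 15, 50, 500, 1500 and 5000 μg/plate following standard Ames/Maron protocols.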

Bounds are passed on as bounds.

In the case of `Fc1cccc(CNc2ncnc3c2nc(Cl)n3C2CCCCO2)c1` (centres unmarked) [Compound 7], the “Activity (%); (s.d.)” value in [1] was 114 (±5) %. For the same molecule, the “Concentration with highest activity (mol/l)” value (shortened to “Concentration”) in data set [1] is recorded as 10^−6-10^−4 mol/l. Besides, the IC50 is above 100 µmol/L in data set [2]; above 100 µmol/L with melanoma cell line G-361; above 50 µmol/L in data set [5]; above 100 µmol/L in data set [6]; above 100 µmol/L in data set [7]; above 100 µmol/L in data set [8]. Also, the “GI20” value in [3] is above 200 µmol/L. For the same molecule, the “Activity (%) (s.d.), retention of chlorophyll” value (“Activity (%) (s.d.), retention” below) in data set [4] is reported as 110 (±2) %.

For `COc1cccc(CNc2ncnc3c2nc(Cl)n3C2CCCCO2)c1` (centres unmarked) [Compound 8], the “Activity (%); (s.d.)” value in [1] is on record as 119 (±7) %. For the same molecule, the “Concentration” value in [1] was 10^−6-10^−4 mol/l. The IC50 (in data set [2]; with melanoma cell line G-361; in [5]; in [6]; in [7]; in data set [8]) was above 100 µmol/L in each case. Further, in data set [3], the “GI20” value is above 200 µmol/L. In data set [4], the “Activity (%) (s.d.), retention” value is recorded as 125 (±6) %.

For `COc1cccc(CNc2ncnc3c2nc(Br)n3C2CCCCO2)c1` (centres unmarked) [Compound 28], the “Activity (%); (s.d.)” value in data set [1] was 107 (±2) %. Besides, the “Concentration” value in data set [1] is 10^−6-10^−4 mol/l. Also, the IC50 (in data set [2]; in the data set with melanoma cell line G-361; in data set [5]; in data set [6]; in data set [7]; in data set [8]) was above 50 µmol/L throughout. Moreover, in data set [3], the “GI20” value was above 100 µmol/L. In addition, the “Activity (%) (s.d.), retention” value in data set [4] is 126 (±7) %.

As for `COc1cccc(CNc2ncnc3c2nc(SC)n3C2CCCCO2)c1` (centres unmarked) [Compound 150], in data set [1], the “Activity (%); (s.d.)” value is 105 (±2) %. For the same molecule, in data set [1], the “Concentration” value is on record as 10^−6-10^−5 mol/l. Besides, the IC50 (in [2]; with melanoma cell line G-361; in data set [5]; in data set [6]; in data set [7]; in [8]) was above 50 µmol/L in each case. Besides, the “GI20” value in data set [3] was above 100 µmol/L. Moreover, in data set [9], the mutagenic response entry is reported as “no positive mutagenic responses”.

In the case of `CSc1nc2c(NCc3cccc(F)c3)ncnc2n1C1CCCCO1` (centres unmarked) [Compound 151], the “Activity (%); (s.d.)” value in data set [1] is given as 109 (±5) %. Further, the “Concentration” value in [1] is 10^−6-10^−4 mol/l. For the same molecule, the IC50 (in [2]; in the data set on melanoma cell line G-361; in [5]; in data set [6]; in data set [7]; in [8]) was above 50 µmol/L each time. The “GI20” value in [3] was above 100 µmol/L. In data set [9], the mutagenic response result is listed as “no positive mutagenic responses”.

Regarding `COc1nc2c(NCC=C(C)CO)ncnc2n1C1CCCO1` (centres unmarked) [Compound 208], the “Activity (%); (s.d.)” value in [1] is on record as 119 (±7) %. Further, in [1], the “Concentration” value was 10^−6-10^−4 mol/l. Besides, the IC50 (in [2]; with melanoma cell line G-361; in [5]; in data set [6]; in data set [7]; in data set [8]) was above 50 µmol/L throughout. Further, the “GI20” value in [3] was above 100 µmol/L. Also, in data set [9], the mutagenic response entry is reported as “no positive mutagenic responses”.

Regarding `CSc1nc2c(NCc3ccco3)ncnc2n1C1CCCO1` (centres unmarked) [Compound 216], the “Activity (%); (s.d.)” value in data set [1] is reported as 103 (±4) %. The “Concentration” value in [1] was 10^−6-10^−4 mol/l. The IC50 (in data set [2]; in the data set with melanoma cell line G-361; in [5]; in data set [6]; in [7]; in data set [8]) was above 50 µmol/L in each case. In addition, the “GI20” value in [3] was above 100 µmol/L. For the same molecule, the mutagenic response entry in [9] was “no positive mutagenic responses”.

As for `CSc1nc2c(NCC=C(C)C)ncnc2n1C1CCCO1` (centres unmarked) [Compound 218], the “Activity (%); (s.d.)” value in [1] was 113 (±5) %. Moreover, the “Concentration” value in data set [1] is listed as 10^−6-10^−4 mol/l. For the same molecule, the IC50 (in data set [2]; in the data set on melanoma cell line G-361; in [5]; in data set [6]; in data set [7]; in data set [8]) was above 50 µmol/L each time. The “GI20” value in data set [3] is above 100 µmol/L. In addition, the mutagenic response result in [9] is recorded as “no positive mutagenic responses”.
